The results in this text go back to PubChem BioAssay AID652047 (Broad Institute, 2013).

The structures appear in SMILES notation.

The test deals with P. falciparum 3D7 in RBCs, SYBR Green DNA fluorescence. Briefly: antimalarial activity against intraerythrocytic 3D7 parasites – 3D7 strain, red blood cells, SYBR Green, cherry-picked, dose response (AID 652047).

As to `CCOC(=O)c1cnc(-n2nc(C)cc2C)nc1NC1CCCC1`, the AC35 was 2.6 µM.
The result for `COc1ccc2oc(=O)c(-c3csc(Nc4cccc(O)c4)n3)cc2c1` reads 15.7 µM; that for `O=c1c2ccccc2nc(-c2cccc(Cl)c2)n1O`, 25.4 µM.
The same measure for `Cc1ccc(-c2c3c(nc4sc(C(N)=O)c(N)c24)CCCC3)o1`: 42.6 µM; for `O=C(O)c1ccccc1NC(c1ccccc1)c1ccc2cccnc2c1O` (stereo unspecified): 10.8 µM; for `Cc1ccc(-n2nnnc2SCC(=O)N2CCc3ccccc3C2)c(C)c1`: 30.7 µM.
The same measure for `Cc1cccc2sc(NNC(=O)c3ccc(S(=O)(=O)N4CCCC(C)C4)cc3)nc12` (stereo unspecified): 3.46 µM; for `Clc1nc(-c2ccccn2)nc2scc(-c3ccccc3)c12`: 2.34 µM.
For the compound `CN(C)c1nc(SCc2ccc(Cl)cc2)nc2c1CCCC2`, the AC35 is 40.2 µM.
The same measure for `O=C(Nc1nnc(SCc2ccc(F)cc2)s1)c1ccccn1`: 2.17 µM; for `O=c1c(O)c(-c2ccccc2)oc2ccccc12`: 31.1 µM; for `C(=C1c2ccccc2-c2ccccc21)c1ccncc1`: 12.1 µM.
The same measure for `CCN1C(=O)C(CC(=O)Nc2ccccc2Cl)N(NC(=O)c2cccc(F)c2)C1=S` (stereo unspecified): 21.2 µM.
The result for `O=c1c2ccccc2nc(-c2ccc(-c3ccccc3)cc2)n1-c1ccncc1` reads 3.6 µM; that for `CCN(CC)c1ccc(/C=N/NC(=O)c2c(Cl)cnn2C)c(O)c1`, 3.27 µM.
In the case of `Clc1ccccc1C(c1ccccc1)(c1ccccc1)n1ccnc1`, the AC35 is 0.448 µM.
As to `COc1ccc(O)c(C(=O)CC(=O)c2ccccc2C)c1`, the AC35 was 8.89 µM.
The result for `O=C(c1ccc(-c2ccccc2)cc1)C1CCCN(C(=O)c2cncs2)C1` (stereo unspecified) reads 9.45 µM; that for `O=C1OCC(CO)(CO)N=C1NNc1ccc(Cl)c(Cl)c1`, 19.1 µM.
The same measure for `CCc1ccc(CN(C)C(=O)c2cc(COc3cccc(C(F)(F)F)c3)on2)nc1`: 24.6 µM; for `Cc1ccc(S(=O)(=O)Nc2ccc(O)c3cccnc23)cc1`: 7.02 µM; for `C=C(C)COc1ccc(-c2[nH]ncc2-c2ccccc2)c(O)c1`: 2.91 µM.
The result for `Cc1ccc(NC(=O)CN(C)C(=O)c2cccnc2Nc2cccc(C(F)(F)F)c2)cc1` reads 7.58 µM; that for `CC(C)N1CCN(c2ccc(OC[C@H]3CO[C@](Cn4cncn4)(c4ccc(Cl)cc4Cl)O3)cc2)CC1`, 5.3 µM; that for `Cc1ccc2oc(-c3ccccc3)c(C(=O)O)c(=O)c2c1`, 16.2 µM.
With `Cc1c(C(=O)O)cccc1-c1ccc(/C=N/Nc2ccc(Br)cc2)o1`, the AC35 was 20.2 µM.
In the case of `O=[N+]([O-])c1ccc2c(OCc3nnc(-c4ccccc4Br)o3)ncnc2c1`, the AC35 is 25.5 µM.
The same measure for `CC(=O)C1=C(c2cccc([N+](=O)[O-])c2)N(C(C)=O)n2c(C)nnc2S1`: 0.836 µM; for `NC(=O)N=Nc1c2[nH]c3ccccc3nc-2c2ccccc12`: 10.7 µM.
The same measure for `COc1ccc(Sc2nc(-c3ccccn3)ncc2OC)cc1`: 1.26 µM; for `COc1cnc(-c2ccccn2)nc1Sc1ccccc1`: 4.67 µM; for `CC/C(=N/NC(=O)c1ccccc1O)c1c(C)[nH]n(-c2ccccc2)c1=O`: 34.9 µM.
`CN(C)c1ccc(C=c2c3cc(O)ccc3n3c2cc(-c2ccccc2)[n+]3C)cc1`: the AC35 was 0.127 µM.
The same measure for `CCC1=NN(C(=O)c2cccc(Br)c2)C(O)(c2ccc(Br)cc2)C1` (stereo unspecified): 14.7 µM; for `O=C(Nc1nc(-c2ccccn2)cs1)c1ccc(Br)s1`: 0.663 µM; for `Clc1ccc(C2=NCCN2)cc1`: 5.64 µM.
The same measure for `CCC(C)c1ccc(NC(=S)NCCn2cc(Br)cn2)cc1` (stereo unspecified): 13.9 µM; for `O=C(Nc1ccc(Br)c(C(F)(F)F)c1)c1ccccc1`: 20 µM.
The result for `O=S1OC(c2ccccc2)c2cc(Cl)ccc21` (stereo unspecified) reads 11.3 µM; that for `O=C(Nc1ccc(Cl)cc1C(=O)Nc1ccc(Br)cn1)c1ccco1`, 15.1 µM.
Turning to `CCN(CC)C(=O)CSc1ncnc2sc(-c3ccccc3)cc12`, the AC35 is 35.6 µM.
Consider `COC(=O)C1=C(C)NC(C)=C(C(=O)OCC(C)C)C1c1ccccc1[N+](=O)[O-]` (stereo unspecified), for which the AC35 was 4.78 µM.
The same measure for `Cc1cc(C)c(C(=O)CC(=O)c2cccnc2)c(C)c1`: 6.77 µM.
The same measure for `[O-][n+]1cccc2c(Br)cc(Br)c(O)c21`: 7.13 µM; for `Cc1cccc(Oc2nc(-c3ccccn3)nc3ccccc23)c1`: 3.89 µM; for `C=C1C(=O)C23CCC4C(C)(C(=O)OC)CCCC4(C)C2CCC1(O)C3` (stereo unspecified): 1.99 µM.
As to `O=[N+]([O-])c1cc(C(F)(F)F)ccc1NCCc1c[nH]c2ccc(O)cc12`, the AC35 was 28.3 µM.
Turning to `Cc1nc(-c2ccccn2)nc(N(C)c2ccccc2)c1Cl`, the AC35 was 3.26 µM.
Turning to `CC1CCN(c2nc(-c3ccncc3)nc3ccccc23)CC1`, the AC35 was 4.32 µM.
The same measure for `Cc1ccoc1C(=O)Nc1cccc(Oc2ccccc2)c1`: 10.4 µM.
The same measure for `Cc1ccc(Sc2cc(C)nc(-c3ccccn3)n2)cc1`: 3.19 µM; for `CCCCNc1c(-c2ccc(-c3ccc(OC)cc3)c(OC)c2)nc2ccccn12`: 5.67 µM; for `Oc1c(I)cc(Cl)c2cccnc12`: 2.33 µM.
The same measure for `Cc1ccccc1C(=O)NNC(=S)NC(=O)c1ccc(Cl)cc1Cl`: 41.1 µM.
Consider `Cc1ccc(Cl)cc1NC1=C/C(=N\S(=O)(=O)c2cccs2)c2ccccc2C1=O`, for which the AC35 is 0.0436 µM.
The same measure for `CN(C)c1nc(-c2ccccn2)nnc1-c1ccccc1`: 1.13 µM; for `CC12CC3(C)CC(C)(C1)CC(NC(=O)N1CCCC1)(C2)C3`: 22.2 µM; for `CC(=O)Nc1cccc(NC(=O)CSc2ccc(-c3ccccn3)nn2)c1`: 14 µM.
The same measure for `CCc1ccc(OCc2n[nH]c(=S)n2Cc2ccccc2)cc1`: 32 µM; for `Cc1c(C2(O)CCCCC2)[nH]c2ccc(C(F)(F)F)cc12`: 27.4 µM; for `Cc1ccccc1Oc1nc(-c2ccccn2)nc2ccccc12`: 2.17 µM.
The result for `Cc1cccc(NC(=S)NC(C)CCc2ccccc2)c1` (stereo unspecified) reads 5.69 µM.
With `O=C(NCCC1=CCCCC1)c1c(O)nc2sccn2c1=O`, the AC35 was 17 µM.
The same measure for `COc1cnc(-c2ccccn2)nc1N(C)c1ccccc1`: 0.962 µM.
The result for `Cc1ccc(NC2(c3nnnn3-c3c(C)cccc3C)CCCCC2)cc1` reads 15.7 µM; that for `CC1CCc2c(C(=O)Nc3ccccn3)csc2C1` (stereo unspecified), 28.7 µM.
The result for `O/N=C(\c1ccc(Cl)cc1)c1cc2ccccc2o1` reads 8.56 µM.
As to `CCCCCCSc1ccc(-c2nc3ccccn3c2NCCCC)cc1`, the AC35 was 12.2 µM.
The same measure for `Cc1cccc(Nc2nc(-c3ccc(O)cc3O)cs2)n1`: 20.3 µM; for `C=CCOC(Cn1ccnc1)c1ccc(Cl)cc1Cl` (stereo unspecified): 6.08 µM.
The same measure for `c1ccc(CSc2ccc(-c3ccccn3)nn2)nc1`: 19 µM.
As to `O=Cc1cc(N=Nc2ccccc2Cl)ccc1O`, the AC35 was 2.77 µM.
`Cc1ccc(C)c(/C=C/C(=O)c2ccccc(=O)c2O)c1`: the AC35 was 7.91 µM.
The same measure for `Cc1ccc2c(C)c3ccc4ccccc4c3c[n+]2c1`: 0.0368 µM.
The result for `CN(C)c1ccc(C=c2c3ccccc3n3c2c2c([n+]3C)CCCC2)cc1` reads 0.15 µM.
Take `CC1(C)C2CCC1(C)C(OC(=O)c1ccc(O)cc1)C2` (stereo unspecified): the AC35 was 12.2 µM.
